Reference: patent US8785439B2, “2,5,7-substituted oxazolopyrimidine derivatives” (Sanofi, priority 2010, dated 2014)

The molecules below were run against T1, human Edg-1 receptor (Homo sapiens, UniProt P21453) (assay: GTP-γ-S assay using human Edg-1 receptors (SPA, CHO Flp-In cell membrane preparation)). Settings: test compound at 10 μM; high control 10 μM S1P regarded as 100% activation; background-corrected; triplicate; read-out: % Activation (Edg-1 receptor activation in percent of the activation by 10 μM S1P).
T1 construct: FLAG (N); expressed in transfected cells; membrane preparation
Assay type: biochemical
Source text: Determination of the Pharmacological Activity A) GTP-γ-S Assay Using Human Edg-1 Receptors
In order to determine the Edg-1 receptor activation by the compounds of the invention, a GTP-γ-S (guanosine 5′-[γ-thio]triphosphate) assay for G-protein coupled receptor binding based on the scintillation proximity assay principle was used, employing a cell membrane preparation from a CHO Flp-In cell line which constitutively overexpresses the human Edg-1 receptor.
The Flp-In™ expression system (Invitrogen, cat. no. K6010-01) allows the generation of stable mammalian cell lines into which the gene of interest has been integrated through homologous recombination at a specific genomic location called Flp Recombination Target (FRT) site by means of a Flp recombinase encoded by the pOG44 expression plasmid. The integration of the pcDNA5/FRT expression construct into the Flp-In host cell line genome results in the transcription of the gene of interest. The stably transfected cells become hygromycin-resistant.
One day prior to transfection, 200 000 Flp-In-CHO cells were seeded in Ham F-12 medium (Invitrogen, cat. no. 31765) supplemented with 10% fetal calf serum (FCS; Perbio Science, cat. no. SH30068.03) in a 6-well plate and incubated at 37° C./5% CO2 overnight. Using the FuGENE® 6 transfection reagent (Roche, cat. no. 11988387001), cells were cotransfected with the Flp recombinase expression plasmid pOG44 and a modified plasmid additionally containing the edg-1 gene (accession no. NM_001400) termed as pcDNA5-FRT-TO_nFLAG_DEST-EDG-1 with a 9:1 ratio. To obtain the modified pcDNA5-FRT-TO_nFLAG_DEST plasmid, the Invitrogen plasmid pcDNA5/FRT/TO (Invitrogen, cat. no. V6520-20) was adapted to the Gateway® (Invitrogen) cloning system by inserting a Gateway cassette containing attR recombination sites flanking a ccdB gene and a chloramphenicol-resistance gene (Gateway conversion system, Invitrogen, cat. no. 11828-029). In addition a FLAG tag epitope was added before the 5′ att recombination site to allow recombinant expression of N-terminally FLAG-tagged proteins.
For the transfection of one well, 1.08 μg of pOG44 and 0.12 μg of pcDNA5-FRT-TO_nFLAG_DEST-EDG-1 were mixed with 100 μl of serum-free Ham F-12 medium containing 6 μl of FuGENE® 6 transfection reagent. After 20 min of incubation, the transfection reagent/DNA complex was distributed dropwise on the cells. The cells were incubated for 24 h at 37° C. Then the cells from 3 wells each were transferred to a T75 flask (Greiner Cellstar®, cat. no. 658175) containing Ham F-12 medium supplemented with 10% of FCS but without antibiotic and were incubated another 24 h. 48 h after transfection, the medium was replaced by selection medium (Ham F-12 supplemented with 10% of FCS and 300 μg/ml of hygromycin B (Invitrogen, cat. no. 10687-010)). The medium was exchanged every 2 to 3 days until a resistant population of cells had grown. […] After 2 weeks of selection, the cells were transferred into T175 flasks (Greiner Cellstar®, cat. no. 660175) and cultivated for batch production. Cells were harvested from the culture flasks by short treatment (2 to 5 min) with Accutase (PAA, cat. no. L11-007), resuspended in selection medium (see above) and centrifuged at 200×g for 5 min. Cells were resuspended in a mixture of 90% of FCS and 10% of dimethylsulfoxide and stored frozen in liquid nitrogen.
A membrane preparation was obtained by standard methods from the afore-described CHO Flp-In cell line constitutively overexpressing the human Edg-1 receptor. Briefly, the cryopreserved cells were taken in culture and grown until confluency in T175 cell culture flasks (Becton Dickinson, cat. no. 35 5001). […]

T1 sequence (P21453 whole entry): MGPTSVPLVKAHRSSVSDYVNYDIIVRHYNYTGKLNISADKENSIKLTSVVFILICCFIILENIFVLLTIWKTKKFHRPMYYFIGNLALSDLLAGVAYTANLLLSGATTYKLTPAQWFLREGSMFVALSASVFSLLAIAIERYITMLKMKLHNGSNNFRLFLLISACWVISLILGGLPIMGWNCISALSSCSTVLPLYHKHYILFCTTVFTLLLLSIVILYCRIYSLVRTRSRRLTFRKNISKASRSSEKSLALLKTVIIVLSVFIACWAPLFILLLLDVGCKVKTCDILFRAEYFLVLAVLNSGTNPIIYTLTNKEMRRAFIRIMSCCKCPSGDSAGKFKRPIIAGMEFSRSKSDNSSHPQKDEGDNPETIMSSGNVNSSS

Row | SMILES | activation at 10 µM [%]
1 | CCCOc1nc(Oc2cc(F)ccc2C)nc2oc(-c3ccc(Cl)c(Cl)c3)nc12 [Example 157, 2-(3,4-dichloro-phenyl)-5-(5-fluoro-2-methyl-phenoxy)-7-propoxy-oxazolo[5,4-d]pyrimidine] | 92
2 | CCCOc1nc(Oc2ccc(C)c(Cl)c2)nc2oc(-c3cccc(C)c3)nc12 [Example 89, 5-(3-chloro-4-methyl-phenoxy)-7-propoxy-2-(3-methyl-phenyl)-oxazolo[5,4-d]pyrimidine] | 96
3 | CCOc1nc(Oc2cc(C)nn2C)nc2oc(-c3cccc(C)c3)nc12 [Example 26, 5-(2,5-dimethyl-2H-pyrazol-3-yloxy)-7-ethoxy-2-(3-methyl-phenyl)-oxazolo[5,4-d]pyrimidine] | 101
4 | Fc1ccc(Cl)c(-c2nc3c(OCC4CC4)nc(Oc4ccccc4F)nc3o2)c1 [Example 104, 2-(2-chloro-5-fluoro-phenyl)-7-cyclopropylmethoxy-5-(2-fluoro-phenoxy)-oxazolo[5,4-d]pyrimidine] | 117
5 | CCCOc1nc(Sc2nc(C)cs2)nc2oc(-c3cc(F)ccc3Cl)nc12 [Example 58, 2-(2-chloro-5-fluoro-phenyl)-5-(4-methyl-thiazol-2-ylsulfanyl)-7-propoxy-oxazolo[5,4-d]pyrimidine] | 102
6 | O=S1(=O)CCC(Sc2nc(OCC3CC3)c3nc(-c4cc(F)ccc4Cl)oc3n2)C1 (centres unmarked) [Example 13, 2-(2-chloro-5-fluoro-phenyl)-7-cyclopropylmethoxy-5-(1,1-dioxo-tetrahydro-1lambda6-thiophen-3-ylsulfanyl)-oxazolo[5,4-d]pyrimidine] | 104
7 | CCOc1nc(OCC2COC(C)(C)O2)nc2oc(-c3cccc(C)c3)nc12 (centres unmarked) [Example 37, 5-(2,2-dimethyl-[1,3]dioxolan-4-ylmethoxy)-7-ethoxy-2-(3-methyl-phenyl)-oxazolo[5,4-d]pyrimidine] | 86
8 | CCCOc1nc(Oc2c(Cl)cccc2Cl)nc2oc(-c3cccc(C)c3)nc12 [Example 86, 5-(2,6-dichloro-phenoxy)-7-propoxy-2-(3-methyl-phenyl)-oxazolo[5,4-d]pyrimidine] | 98
9 | CCCOc1nc(NC2CCOCC2)nc2oc(-c3cccc(C)c3)nc12 [Example 3, (7-Propoxy-2-(3-methyl-phenyl)-oxazolo[5,4-d]pyrimidin-5-yl)-(tetrahydro-pyran-4-yl)-amine] | 74
10 | Fc1cccc(-c2nc3c(OCC4CC4)nc(Oc4ccccc4F)nc3o2)c1 [Example 32, 7-cyclopropylmethoxy-5-(2-fluoro-phenoxy)-2-(3-fluoro-phenyl)-oxazolo[5,4-d]pyrimidine] | 61
11 | Cc1cc(-c2nc3c(OC4COC4)nc(Oc4ccccc4F)nc3o2)cc(C)c1OC1COC1 [Example 49, 2-[3,5-dimethyl-4-(oxetan-3-yloxy)-phenyl]-5-(2-fluoro-phenoxy)-7-(oxetan-3-yloxy)-oxazolo[5,4-d]pyrimidine] | 123
12 | CCCOc1nc(Oc2cccnc2)nc2oc(-c3cccc(O)c3)nc12 [Example 43, 3-[7-propoxy-5-(pyridin-3-yloxy)-oxazolo[5,4-d]pyrimidin-2-yl]-phenol] | 98
13 | CCCOc1nc(Oc2ccc(C)cc2Cl)nc2oc(-c3cccc(C)c3)nc12 [Example 90, 5-(2-chloro-4-methyl-phenoxy)-7-propoxy-2-(3-methyl-phenyl)-oxazolo[5,4-d]pyrimidine] | 67
14 | CCCOc1nc(Oc2cc(Cl)ccc2Cl)nc2oc(-c3cccc(C)c3)nc12 [Example 120, 5-(2,5-dichloro-phenoxy)-7-propoxy-2-(3-methyl-phenyl)-oxazolo[5,4-d]pyrimidine] | 86
15 | Cc1cccc(-c2nc3c(OCC4CC4)nc(OCC4COC(C)(C)O4)nc3o2)c1 (centres unmarked) [Example 36, 7-cyclopropylmethoxy-5-(2,2-dimethyl-[1,3]dioxolan-4-ylmethoxy)-2-(3-methyl-phenyl)-oxazolo[5,4-d]pyrimidine] | 78
16 | CCCOc1nc(Oc2cc(C(F)(F)F)ccc2Cl)nc2oc(-c3cccc(C)c3)nc12 [Example 143, 5-(2-chloro-5-trifluoromethyl-phenoxy)-7-propoxy-2-(3-methyl-phenyl)-oxazolo[5,4-d]pyrimidine] | 52
17 | CCCOc1nc(Oc2ccc(SC(F)(F)F)cc2)nc2oc(-c3cccc(F)c3)nc12 [Example 82, 2-(3-fluoro-phenyl)-7-propoxy-5-(4-trifluoromethylsulfanyl-phenoxy)-oxazolo[5,4-d]pyrimidine] | 107
18 | Cc1ccc(F)cc1Oc1nc(OCC2CC2)c2nc(-c3ccc(Cl)c(Cl)c3)oc2n1 [Example 159, 7-cyclopropylmethoxy-2-(3,4-dichloro-phenyl)-5-(5-fluoro-2-methyl-phenoxy)-oxazolo[5,4-d]pyrimidine] | 55
19 | CCCOc1nc(Oc2cc(Cl)ccc2C)nc2oc(-c3cccc(C)c3)nc12 [Example 115, 5-(5-chloro-2-methyl-phenoxy)-7-propoxy-2-(3-methyl-phenyl)-oxazolo[5,4-d]pyrimidine] | 96
20 | CCCOc1nc(Oc2ccc(Cl)cc2C)nc2oc(-c3cccc(C)c3)nc12 [Example 88, 5-(4-chloro-2-methyl-phenoxy)-7-propoxy-2-(3-methyl-phenyl)-oxazolo[5,4-d]pyrimidine] | 86

Second part, the molecule after the results:

Row | activation at 10 µM [%] | SMILES
21 | 124 | CCCOc1nc(Oc2ccccc2)nc2oc(-c3cc(C)ccc3F)nc12 [Example 33, 2-(2-fluoro-5-methyl-phenyl)-5-phenoxy-7-propoxy-oxazolo[5,4-d]pyrimidine]
22 | 80 | CCCOc1nc(Oc2ccc(C)cc2)nc2oc(-c3cccc(C)c3)nc12 [Example 73, 7-propoxy-2-(3-methyl-phenyl)-5-p-tolyloxy-oxazolo[5,4-d]pyrimidine]
23 | 112 | CCCOc1nc(Oc2ccccc2C(C)C)nc2oc(-c3cccc(C)c3)nc12 [Example 124, 5-(2-isopropyl-phenoxy)-7-propoxy-2-(3-methyl-phenyl)-oxazolo[5,4-d]pyrimidine]
24 | 93 | CCCOc1nc(Oc2cccc(C#N)c2)nc2oc(-c3cccc(C)c3)nc12 [Example 87, 3-(7-propoxy-2-(3-methyl-phenyL)-oxazolo[5,4-d]pyrimidin-5-yloxy)-benzonitrile]
25 | 107 | CCCOc1nc(Oc2ccc(F)cc2F)nc2oc(-c3cccc(C)c3)nc12 [Example 95, 5-(2,4-difluoro-phenoxy)-7-propoxy-2-(3-methyl-phenyl)-oxazolo[5,4-d]pyrimidine]
26 | 80 | CCCOc1nc(Oc2ccccc2F)nc2oc(-c3cccc(F)c3)nc12 [Example 31, 5-(2-fluoro-phenoxy)-2-(3-fluoro-phenyl)-7-propoxy-oxazolo[5,4-d]pyrimidine]
27 | 107 | CCCOc1nc(Oc2ccc(F)c(C)c2)nc2oc(-c3cccc(C)c3)nc12 [Example 130, 5-(4-fluoro-3-methyl-phenoxy)-7-propoxy-2-(3-methyl-phenyl)-oxazolo[5,4-d]pyrimidine]
28 | 85 | CCCOc1nc(Oc2ccc(F)c(C(F)(F)F)c2)nc2oc(-c3cccc(C)c3)nc12 [Example 129, 5-(4-fluoro-3-trifluoromethyl-phenoxy)-7-propoxy-2-(3-methyl-phenyl)-oxazolo[5,4-d]pyrimidine]
29 | 104 | CCCOc1nc(Oc2cc(F)ccc2Cl)nc2oc(-c3cccc(C)c3)nc12 [Example 101, 5-(2-chloro-5-fluoro-phenoxy)-7-propoxy-2-(3-methyl-phenyl)-oxazolo[5,4-d]pyrimidine]
